Two molecules from US8637246B2, “BRAF mutations conferring resistance to BRAF inhibitors” (Dana-Farber Cancer Institute, Inc., priority 2010, dated 2014) can be followed below.

Molecules are shown by their SMILES.

Experiment [1] has as its target BRAF-V600E-T521K (Homo sapiens, UniProt P15056, T521K/V600E). The experiment is described as follows: Western blot of p-MEK1/2 and p-ERK1/2 in transfected 293T cells (BRAF-V600E-T521K). It counts as cell-based. The conditions noted are these: 293T cells transfected with BRAF-V600E-T521K; 0, 0.08, 0.4, 2, 5 and 10 μM for 16 hours; immunoblot (FIG. 8). How it is done:
(§1) 293T cells were transfected with 6 μg of pWZL(BLAST)-BRAF for each putative resistance allele and subsequently treated with a range of concentrations of the BRAF(V600E) inhibitor PLX4720 (0, 0.08, 0.4, 2, 5 and 10 μM) for 16 hours. Immunoblot studies were performed using standard procedures. Briefly, the treated cells were lysed with TNN buffer containing protease inhibitor (Roche), NaF and NaVO3 (1 mM each). Lysates were quantified (Bradford assay), denatured (95° C.), and resolved by SDS gel electrophoresis. Proteins was transferred to nitrocellulose membranes and probed with primary antibodies recognizing BRAF (Santa Cruz; 1:10,000 dilution), p-ERK1/2, p-MEK1/2 (Ser-217/221), and α-tubulin (Cell Signaling Technology; 1:1,000 dilution). After incubation with the appropriate secondary antibody (anti-rabbit or anti-mouse IgG, HRP-linked; 1:1,000 dilution) (Cell Signaling Technology), proteins were detected using chemiluminescence (Pierce).

Experiment [2] addresses BRAF V600E-P686Q (Homo sapiens, UniProt P15056, P686Q/V600E). Kind of experiment: Western blot of p-MEK1/2 and p-ERK1/2 in transfected 293T cells (BRAF V600E-P686Q). The class given is cell-based. The conditions noted are these: 293T cells transfected with BRAF V600E-P686Q; 0, 0.08, 0.4, 2, 5 and 10 μM for 16 hours; immunoblot (FIG. 8). How it is done:
as §1
On the technique in general: In western blotting, separated proteins are transferred to a membrane and probed.

For experiment [3], the system named is A375 cells expressing a wild-type BRAF polypeptide.
For experiment [4], the system named is A375 cells expressing a mutant BRAF polypeptide. The conditions noted are these: A375 cells expressing a mutant BRAF polypeptide with one or more listed resistance mutations (A29V ... C748F).

Chain of BRAF-V600E-T521K (P15056 whole entry T521K/V600E): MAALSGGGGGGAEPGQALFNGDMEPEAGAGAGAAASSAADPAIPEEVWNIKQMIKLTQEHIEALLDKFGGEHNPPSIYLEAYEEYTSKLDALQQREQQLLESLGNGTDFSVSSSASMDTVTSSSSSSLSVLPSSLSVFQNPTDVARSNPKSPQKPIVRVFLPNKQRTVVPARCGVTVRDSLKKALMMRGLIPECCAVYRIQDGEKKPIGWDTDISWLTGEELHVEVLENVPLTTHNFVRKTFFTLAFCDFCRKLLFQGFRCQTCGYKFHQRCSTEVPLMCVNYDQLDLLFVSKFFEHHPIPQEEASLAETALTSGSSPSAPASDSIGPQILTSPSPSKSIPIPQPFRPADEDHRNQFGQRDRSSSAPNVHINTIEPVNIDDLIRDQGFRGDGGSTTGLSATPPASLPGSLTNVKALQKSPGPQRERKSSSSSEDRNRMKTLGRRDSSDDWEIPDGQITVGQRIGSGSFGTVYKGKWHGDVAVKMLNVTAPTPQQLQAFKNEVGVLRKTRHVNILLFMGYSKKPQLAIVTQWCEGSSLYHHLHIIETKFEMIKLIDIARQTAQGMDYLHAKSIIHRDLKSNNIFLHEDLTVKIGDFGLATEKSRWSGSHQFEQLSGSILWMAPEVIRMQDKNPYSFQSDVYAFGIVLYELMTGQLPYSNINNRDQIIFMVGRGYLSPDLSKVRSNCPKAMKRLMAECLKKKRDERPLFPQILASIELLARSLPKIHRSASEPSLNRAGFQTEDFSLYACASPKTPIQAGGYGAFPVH
Chain of BRAF V600E-P686Q (P15056 whole entry V600E/P686Q): as the sequence (P15056 whole entry T521K/V600E) above, with K521T, P686Q counted along it

Turning to `CCCS(=O)(=O)Nc1ccc(F)c(C(=O)c2c[nH]c3ncc(Cl)cc23)c1F` [PLX4720], the “increase in phosphorylated MEK1/2 and ERK1/2 in the presence of increasing concentrations of inhibitor” value in experiment [1] and in experiment [2] was “sustained” each time.

As to `Cn1c(Nc2ccc(C(F)(F)F)cc2)nc2cc(Oc3ccnc(-c4ncc(C(F)(F)F)[nH]4)c3)ccc21` [RAF-265], the “sensitivity of cells to the RAF inhibitor” value is listed as “sensitive” in experiment [3] and “resistant” in experiment [4].
